Laboratory results from patent publication US20220169643A1, “ESTROGEN RECEPTOR DEGRADING PROTACS” (AstraZeneca AB, priority 2019, published 2022).

Target: T1, Estrogen Receptor Alpha Ligand binding domain (ER alpha-LBD (GST)) (Homo sapiens, UniProt P03372)
T1 construct: made in house
T1 sequence (P03372 307-554): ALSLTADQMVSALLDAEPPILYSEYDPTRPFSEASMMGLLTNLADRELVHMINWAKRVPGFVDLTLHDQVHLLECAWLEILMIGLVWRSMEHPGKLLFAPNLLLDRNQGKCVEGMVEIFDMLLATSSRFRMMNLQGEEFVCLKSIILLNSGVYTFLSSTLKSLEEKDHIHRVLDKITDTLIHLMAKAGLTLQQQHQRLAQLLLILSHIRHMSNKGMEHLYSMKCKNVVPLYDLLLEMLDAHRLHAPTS
Test: ERα Binding Assay (LanthaScreen TR-FRET competition)
Settings: competitive displacement of Fluormone ES2 tracer from recombinant human ER alpha-LBD (residues 307-554), 4 hours at room temperature
Protocol: The ability of compounds to bind to isolated Estrogen Receptor Alpha Ligand binding domain (ER alpha-LBD (GST)) was assessed in competition assays using a LanthaScreen™ Time-Resolved Fluorescence Resonance Energy Transfer (TR-FRET) detection end-point. For the LanthaScreen TR-FRET endpoint, a suitable fluorophore (Fluormone ES2, ThermoFisher, Product code P2645) and recombinant human Estrogen Receptor alpha ligand binding domain, residues 307-554 (expressed and purified in-house) were used to measure compound binding. The assay principle is that ER alpha-LBD (GST) is added to a fluorescent ligand to form a receptor/fluorophore complex. A terbium-labelled anti-GST antibody (Product code PV3551) is used to indirectly label the receptor by binding to its GST tag, and competitive binding is detected by a test compound's ability to displace the fluorescent ligand, resulting in a loss of TR-FRET signal between the Th-anti-GST antibody and the tracer. The assay was performed as follows with all reagent additions carried out using the Beckman Coulter BioRAPTR FRD microfluidic workstation: • 1. Acoustic dispense 120 nL of the test compound into a black low volume 384 well assay plates. • 2. Prepare 1×ER alpha-LBD/Tb-anti-GST Ab in ES2 screening buffer and incubate for 15 minutes. • 3. Dispense 6 μL of the 1×[…]/Th-anti-GST Ab reagent into each well of the assay plate followed by 6 μL of Fluorophore reagent into each well of the assay plate • 4. Cover the assay plate to protect the reagents from light and evaporation, and incubate at room temperature for 4 hours. • 5. Excite at 337 nm and measure the fluorescent emission signal of each well at 490 nm and 520 nm using the BMG PheraSTAR.
Compounds were dosed directly from a compound source microplate containing serially diluted compound (4 wells containing 10 mM, […] and 10 nM final compound respectively) to an assay microplate using the Labcyte Echo 550. The Echo 550 is a liquid handler that uses acoustic technology to perform direct microplate-to-microplate transfers of DMSO compound solutions and the system can be programmed to transfer multiple small nL volumes of compound from the different source plate wells to give the desired serial dilution of compound in the assay which is then back-filled to normalise the DMSO concentration across the dilution range.
In total 120 nL of compound plus DMSO were added to each well and compounds were tested in a 12-point concentration response format over a final compound concentration range of 10, 2.917, 1.042, 0.2083, 0.1, 0.0292, 0.0104, 0.002083, 0.001, 0.0002917, 0.0001042, and 0.00001 μM respectively. TR-FRET dose response data obtained with each compound was exported into a suitable software package (such as Origin or Genedata) to perform curve fitting analysis. Competitive ER alpha binding was expressed as an IC50 value. This was determined by calculation of the concentration of compound that was required to give a 50% reduction in tracer compound binding to ER alpha-LBD.

Molecule | IC50 [nM]
COc1cc(N2CCN(CCCC3CCN(c4ncc([C@@H]5c6[nH]c7ccccc7c6C[C@@H](C)N5CC(C)(C)F)cn4)CC3)CC2)cc2c1C(=O)N(C1CCC(=O)NC1=O)C2 (stereo partly drawn) [Example 13, 3-(5-{4-[3-(1-{5-[(1R,3R)-2-(2-fluoro-2-methylpropyl)-3-methyl-2,3,4,9-tetrahydro-1H-beta-carbolin-1-yl]pyrimidin-2-yl}piperidin-4-yl)propyl]piperazin-1-yl}-7-methoxy-1-oxo-1,3-dihydro-2H-isoindol-2-yl)piperidine-2,6-dione] | 3
COc1cc(N2CCN(CCC3CCN(c4ncc([C@@H]5c6[nH]c7ccccc7c6C[C@@H](C)N5CC(C)(C)F)cn4)CC3)CC2)cc2c1C(=O)N(C1CCC(=O)NC1=O)C2 (stereo partly drawn) [Example 12, 3-(5-{4-[2-(1-{5-[(1R,3R)-2-(2-fluoro-2-methylpropyl)-3-methyl-2,3,4,9-tetrahydro-1H-beta-carbolin-1-yl]pyrimidin-2-yl}piperidin-4-yl)ethyl]piperazin-1-yl}-7-methoxy-1-oxo-1,3-dihydro-2H-isoindol-2-yl)piperidine-2,6-dione] | 1.5
C[C@@H]1Cc2c([nH]c3ccccc23)[C@@H](c2cnc(N3CCC(CCN4CCN(c5ccc6c(c5)CN(C5CCC(=O)NC5=O)C6=O)CC4)CC3)nc2)N1CC(C)(C)F (stereo partly drawn) [Example 2, 3-[5-[4-[2-[1-[5-[(1R,3R)-2-(2-Fluoro-2-methyl-propyl)-3-methyl-1,3,4,9-tetrahydropyrido[3,4-b]indol-1-yl]pyrimidin-2-yl]-4-piperidyl]ethyl]piperazin-1-yl]-1-oxo-isoindolin-2-yl]piperidine-2,6-dione] | 3.3
C[C@@H]1Cc2c([nH]c3ccccc23)[C@@H](c2cnc(N3CCC4(CCN(CCC5CCN(c6ccc7c(c6)CN(C6CCC(=O)NC6=O)C7=O)CC5)CCO4)CC3)nc2)N1CC(C)(C)F (stereo partly drawn) [Example 17, 3-(5-{4-[2-(3-{5-[(1R,3R)-2-(2-fluoro-2-methylpropyl)-3-methyl-2,3,4,9-tetrahydro-1H-beta-carbolin-1-yl]pyrimidin-2-yl}-7-oxa-3,10-diazaspiro[5.6]dodecan-10-yl)ethyl]piperidin-1-yl}-1-oxo-1,3-dihydro-2H-isoindol-2-yl)piperidine-2,6-dione] | 13.8
C[C@@H]1Cc2c([nH]c3ccccc23)[C@@H](c2cnc(N3CCC(CN4CCN(c5ccc6c(c5)CN(C5CCC(=O)NC5=O)C6=O)CC4)CC3)nc2)N1CC(C)(C)F (stereo partly drawn) [Example 1, 3-[5-[4-[[1-[5-[(1R,3R)-2-(2-Fluoro-2-methyl-propyl)-3-methyl-1,3,4,9-tetrahydropyrido[3,4-b]indol-1-yl]pyrimidin-2-yl]-4-piperidyl]methyl]piperazin-1-yl]-1-oxo-isoindolin-2-yl]piperidine-2,6-dione] | 3.1
C[C@@H]1Cc2c([nH]c3ccccc23)[C@@H](c2cnc(N3CCC(CN4CCC(CN5CCN(c6ccc7c(c6)CN(C6CCC(=O)NC6=O)C7=O)CC5)CC4)CC3)nc2)N1CC(C)(C)F (stereo partly drawn) [Example 14, 3-{5-[4-({1-[(1-{5-[(1R,3R)-2-(2-fluoro-2-methylpropyl)-3-methyl-2,3,4,9-tetrahydro-1H-beta-carbolin-1-yl]pyrimidin-2-yl}piperidin-4-yl)methyl]piperidin-4-yl}methyl)piperazin-1-yl]-1-oxo-1,3-dihydro-2H-isoindol-2-yl}piperidine-2,6-dione] | 8.5
C[C@@H]1Cc2c([nH]c3ccccc23)[C@@H](c2cnc(N3CCC(CN4CCN(c5ccc6c(c5)CN(C5CCC(=O)NC5=O)C6=O)CC4)CC3)nc2)N1CC(F)(F)F (stereo partly drawn) [Example 35, 3-(5-{4-[(1-{5-[(1R,3R)-3-methyl-2-(2,2,2-trifluoroethyl)-2,3,4,9-tetrahydro-1H-beta-carbolin-1-yl]pyrimidin-2-yl}piperidin-4-yl)methyl]piperazin-1-yl}-1-oxo-1,3-dihydro-2H-isoindol-2-yl)piperidine-2,6-dione] | 6.9
C[C@@H]1Cc2c([nH]c3ccccc23)[C@@H](c2cnc(N3CCC4(CCN(CCC5CCN(c6ccc7c(c6)CN(C6CCC(=O)NC6=O)C7=O)CC5)CC4)CC3)nc2)N1CC(C)(C)F (stereo partly drawn) [Example 10, 3-(5-{4-[2-(9-{5-[(1R,3R)-2-(2-fluoro-2-methylpropyl)-3-methyl-2,3,4,9-tetrahydro-1H-beta-carbolin-1-yl]pyrimidin-2-yl}-3,9-diazaspiro[5.5]undecan-3-yl)ethyl]piperidin-1-yl}-1-oxo-1,3-dihydro-2H-isoindol-2-yl)piperidine-2,6-dione] | 22.3
C[C@@H]1Cc2c([nH]c3ccccc23)[C@@H](c2cnc(OC3CCC4(CC3)CCN(CC3CCN(c5ccc6c(c5)CN(C5CCC(=O)NC5=O)C6=O)CC3)CC4)nc2)N1CC(C)(C)F (stereo partly drawn) [Example 41, 3-[5-(4-{[9-({5-[(1R,3R)-2-(2-fluoro-2-methylpropyl)-3-methyl-2,3,4,9-tetrahydro-1H-beta-carbolin-1-yl]pyrimidin-2-yl}oxy)-3-azaspiro[5.5]undecan-3-yl]methyl}piperidin-1-yl)-1-oxo-1,3-dihydro-2H-isoindol-2-yl]piperidine-2,6-dione] | 2.2
C[C@@H]1Cc2c([nH]c3ccccc23)[C@@H](c2c(F)cc(OCCCCCN3CCN(c4ccc5c(c4)CN(C4CCC(=O)NC4=O)C5=O)CC3)cc2F)N1CC(C)(C)F (stereo partly drawn) [Example 5, 3-[5-[4-[5-[3,5-Difluoro-4-[(1R,3R)-2-(2-fluoro-2-methyl-propyl)-3-methyl-1,3,4,9-tetrahydropyrido[3,4-b]indol-1-yl]phenoxy]pentyl]piperazin-1-yl]-1-oxo-isoindolin-2-yl]piperidine-2,6-dione] | 3.7
3-[5-(9-{2-[(1S,3r)-3-({5-[(1R,3R)-2-(2-fluoro-2-methylpropyl)-3-methyl-2,3,4,9-tetrahydro-1H-beta-carbolin-1-yl]pyrimidin-2-yl}oxy)cyclobutyl]ethyl}-3,9-diazaspiro[5.5]undecan-3-yl)-1-oxo-1,3-dihydro-2H-isoindol-2-yl]piperidine-2,6-dione [Example 23] | 4.4
C[C@@H]1Cc2c([nH]c3ccccc23)[C@@H](c2cnc(N3CCC(CCN4CCOC5(CC4)CCN(c4ccc6c(c4)CN(C4CCC(=O)NC4=O)C6=O)CC5)CC3)nc2)N1CC(C)(C)F (stereo partly drawn) [Example 20, 3-(5-{10-[2-(1-{5-[(1R,3R)-2-(2-fluoro-2-methylpropyl)-3-methyl-2,3,4,9-tetrahydro-1H-beta-carbolin-1-yl]pyrimidin-2-yl}piperidin-4-yl)ethyl]-7-oxa-3,10-diazaspiro[5.6]dodecan-3-yl}-1-oxo-1,3-dihydro-2H-isoindol-2-yl)piperidine-2,6-dione] | 2
COc1cc(N2CCN(CC3CCN(c4ncc([C@@H]5c6[nH]c7ccccc7c6C[C@@H](C)N5CC(C)(C)F)cn4)CC3)CC2)cc2c1C(=O)N(C1CCC(=O)NC1=O)C2 (stereo partly drawn) [Example 39, 3-(5-{4-[(1-{5-[(1R,3R)-2-(2-fluoro-2-methylpropyl)-3-methyl-2,3,4,9-tetrahydro-1H-beta-carbolin-1-yl]pyrimidin-2-yl}piperidin-4-yl)methyl]piperazin-1-yl}-7-methoxy-1-oxo-1,3-dihydro-2H-isoindol-2-yl)piperidine-2,6-dione] | 3.2
C[C@@H]1Cc2c([nH]c3ccccc23)[C@@H](c2cnc(N3CCC4(CCN(CC5CCN(c6ccc7c(c6)CN(C6CCC(=O)NC6=O)C7=O)CC5)CC4)CC3)nc2)N1CC(C)(C)F (stereo partly drawn) [Example 9, 3-(5-{4-[(9-{5-[(1R,3R)-2-(2-fluoro-2-methylpropyl)-3-methyl-2,3,4,9-tetrahydro-1H-beta-carbolin-1-yl]pyrimidin-2-yl}-3,9-diazaspiro[5.5]undecan-3-yl)methyl]piperidin-1-yl}-1-oxo-1,3-dihydro-2H-isoindol-2-yl)piperidine-2,6-dione] | 8.7
